Experimental findings from patent publication US5264347A, “Method for the determination of α-ketoisocaproate in biological samples using D-α-hydroxyisocaproic dehydrogenase from lactobacillus casei” (Kernforschungsanlage Juelich GmbH, priority 1988, dated 1993) are described below.

Test [1] concerns hydroxy-acid dehydrogenase (enzyme solution) of L. casei ssp. tolerans DSM 20 258. Nature of the test: Selection of a suitable enzyme: initial reaction rate with keto acid, NADH absorption at 340 nm. In kind it is biochemical. The following applies: 0.15 mM keto acid, 0.2 mM NADH, pH 7.0. As for the experimental part: (§1) The species Lactobacillus casei is currently divided into five subgroups (subspecies). […] The three keto acids KIC, KMV and KIV were used in a concentration of 0.15 mM (final concentration in the assay).
(§2) For the assay mixture, the microorganisms which had been cultured under customary conditions were harvested, the cells were disrupted by mechanical action, and the supernatant obtained by centrifugation was used as "enzyme solution" for the assay.
(§3) The assay mixture contained:
(§4) 0.1M potassium phosphate buffer, pH 7.0;
(§5) 0.020 ml of enzyme solution (0.1-0.2 mg of protein);
(§6) The initial reaction rate was determined by measuring the absorption at 340 nm as a function of time. (The reaction rate is reported in international units (IU)/min.) The results obtained are summarized below.

The subject of test [2] is hydroxy-acid dehydrogenase (enzyme solution) of L. casei ssp. rhamosus DSM 20 021. Described as above. In kind it is biochemical. The following applies: 0.15 mM keto acid, 0.2 mM NADH, pH 7.0. The procedure:
as §1, §2, §3, §4, §5, §6

Test [3] has as its system hydroxy-acid dehydrogenase (enzyme solution) of L. case ssp. alactosus DSM 20 020. The test is described as above. As to conditions: 0.15 mM keto acid, 0.2 mM NADH, pH 7.0. In kind it is biochemical. As for the experimental part: as §1, §2, §3, §4, §5, §6
Test [4] relates to hydroxy-acid dehydrogenase (enzyme solution) of L. curvatus DSM 20 019. The test is described as above. In kind it is biochemical. As to conditions: 0.15 mM keto acid, 0.2 mM NADH, pH 7.0. The procedure: (§7) The species Lactobacillus casei is currently divided into five subgroups (subspecies). […] The three keto acids KIC, KMV and KIV were used in a concentration of 0.15 mM (final concentration in the assay). […] For the assay mixture, the microorganisms which had been cultured under customary conditions were harvested, the cells were disrupted by mechanical action, and the supernatant obtained by centrifugation was used as "enzyme solution" for the assay. Besides the various Lactobacillus casei strains, other Lactobacillus strains were also investigated; two typical representatives are listed in a table below. The assay mixture contained: 0.1M potassium phosphate buffer, pH 7.0; 0.2 mM NADH; 0.020 ml of enzyme solution (0.1-0.2 mg of protein); 0.15 mM keto acid (as shown in the table). The initial reaction rate was determined by measuring the absorption at 340 nm as a function of time. (The reaction rate is reported in international units (IU)/min.) The results obtained are summarized below.

In test [5] the target is T1, hydroxy-acid dehydrogenase (enzyme solution) of L. confusus DSM 20 196 (Weissella confusa, UniProt P14295).
T1 sequence (P14295 1-310): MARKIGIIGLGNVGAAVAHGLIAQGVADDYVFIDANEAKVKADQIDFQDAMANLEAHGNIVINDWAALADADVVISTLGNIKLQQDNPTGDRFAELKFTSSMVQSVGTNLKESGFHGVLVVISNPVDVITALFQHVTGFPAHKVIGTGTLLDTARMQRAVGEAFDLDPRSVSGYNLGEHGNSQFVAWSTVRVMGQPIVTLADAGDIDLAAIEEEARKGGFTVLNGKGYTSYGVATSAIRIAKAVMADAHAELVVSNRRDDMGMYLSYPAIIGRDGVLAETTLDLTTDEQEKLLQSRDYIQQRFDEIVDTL
The test is described as above. In kind it is biochemical. The following applies: 0.15 mM keto acid, 0.2 mM NADH, pH 7.0. The procedure:
as §7

The target of test [6] is T2, D-α-hydroxyisocaproic dehydrogenase from Lactobacillus casei ssp. pseudoplantarum (DSM 20008) (Lacticaseibacillus paracasei, UniProt P17584).
T2 construct: D-α-hydroxyisocaproic dehydrogenase from Lactobacillus casei ssp. pseudoplantarum (DSM 20008); endogenous in cells; host or cells: Lactobacillus casei ssp. pseudoplantarum DSM 20008 (enzyme isolated from the strain's own cells)
T2 sequence (P17584 1-333): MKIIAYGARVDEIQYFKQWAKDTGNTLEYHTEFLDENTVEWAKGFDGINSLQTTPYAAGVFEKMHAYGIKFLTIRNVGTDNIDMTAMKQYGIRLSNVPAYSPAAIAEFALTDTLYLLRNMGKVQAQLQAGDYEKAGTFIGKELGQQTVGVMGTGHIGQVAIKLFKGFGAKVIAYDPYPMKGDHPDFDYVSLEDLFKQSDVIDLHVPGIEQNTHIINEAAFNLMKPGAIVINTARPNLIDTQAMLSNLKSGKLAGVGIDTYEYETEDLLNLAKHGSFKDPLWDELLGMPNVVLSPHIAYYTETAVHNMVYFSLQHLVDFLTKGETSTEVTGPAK
Nature of the test: Enzymatic selectivity for KIC: initial reaction rates versus keto acid concentration (FIG. 1). In kind it is biochemical. The following applies: change per minute in absorption at 340 nm versus keto-acid concentration, NADH present.
Source text: This selectivity is illustrated in FIG. 1, which plots a measure of reaction rate (change per minute in absorption at 340 nm), in the presence of NADH and a Lactobacillus casei D-α-hydroxyisocaproicdehydrogenase, versus keto-acid concentration for KIC, KMV and KIV, respectively. In FIG. 1, .largecircle.--.largecircle. represents ketoisocaproate, O O represents ketomethylvalerate and .quadrature.----.quadrature. represents ketoisovalerate, respectively.
This entailed use of standard solutions of the three keto acids, each of known concentration (0.2 to 15 ωg/ml of assay mixture).
as §3, §4
stepped concentrations of keto acids.
The initial reaction rates (ΔA340 /min) were measured at 340 nm. […] This difference would be sufficient for a selective determination of KIC, for example, in serum.

For test [7], the target named is T3, hydroxy-acid dehydrogenase (enzyme solution) of L. casei ssp. pseudoplantarum DSM 20 008 (Lacticaseibacillus paracasei, UniProt P17584).
T3 construct: the cells were disrupted by mechanical action, and the supernatant obtained by centrifugation was used as; endogenous in cells; host or cells: Lactobacillus casei ssp. pseudoplantarum DSM 20008, cell-free supernatant
T3 sequence (P17584 1-333): T2 sequence (P17584 1-333)
Kind of test: Selection of a suitable enzyme: initial reaction rate with keto acid, NADH absorption at 340 nm. It counts as biochemical, Lactobacillus casei ssp. pseudoplantarum. The following applies: 0.15 mM keto acid, 0.2 mM NADH, pH 7.0. As for the experimental part: as §1, §2, §3, §4, §5, §6

Test [8] has as its target T4, hydroxy-acid dehydrogenase (enzyme solution) of L. casei ssp. pseudoplantarum DSM 20 207 (Lacticaseibacillus paracasei, UniProt P17584).
T4 sequence (P17584 1-333): T2 sequence (P17584 1-333)
The description is as above. In kind it is biochemical, Lactobacillus casei ssp. pseudoplantarum. As to conditions: 0.15 mM keto acid, 0.2 mM NADH, pH 7.0. As for the experimental part: as §1, §2, §3, §4, §5, §6

In test [9] the target is T5, hydroxy-acid dehydrogenase (enzyme solution) of L. casei ssp. casei DSM 20 011 (Lacticaseibacillus casei, UniProt A0AAN1C5W2).
T5 sequence (A0AAN1C5W2 1-333): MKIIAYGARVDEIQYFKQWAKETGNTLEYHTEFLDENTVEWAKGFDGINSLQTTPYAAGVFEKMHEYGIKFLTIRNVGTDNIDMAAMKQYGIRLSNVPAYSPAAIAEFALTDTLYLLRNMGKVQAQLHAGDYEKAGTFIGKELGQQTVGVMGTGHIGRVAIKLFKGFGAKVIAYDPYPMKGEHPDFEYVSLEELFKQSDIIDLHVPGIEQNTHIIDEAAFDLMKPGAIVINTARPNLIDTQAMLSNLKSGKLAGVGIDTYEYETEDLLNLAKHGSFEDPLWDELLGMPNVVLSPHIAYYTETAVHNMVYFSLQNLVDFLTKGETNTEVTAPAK
The test is described as above. In kind it is biochemical, Lactobacillus casei ssp. casei. The following applies: 0.15 mM keto acid, 0.2 mM NADH, pH 7.0. As for the experimental part:
as §1, §2, §3, §4, §5, §6

Regarding `CCC(C)C(=O)C(=O)O` (stereo not drawn) [KMV, ketomethylvalerate], the initial reaction rate in [1] is 0 IU/min; in [2], 0 IU/min; in test [3] it was 0 IU/min; in test [4] it was 1.40 IU/min; in [5], 0.90 IU/min; in test [7], 0.12 IU/min. Also, the initial reaction rate in [8] and in [9] was 0 IU/min throughout. Further, the “enzymatic conversion relative to the conversion of KIC (FIG. 1)” value in test [6] is “can be ignored”.
